Results as given in paper PMC10743026, “Virtual Screening Technology for Two Novel Peptides in Soybean as Inhibitors of α-Amylase and α-Glucosidase” (Foods, 2023).
Where two headings read alike, the source gives them in different places. Ends that are not written are not given here.

What was measured:
α-glucosidase = conditions: cited from earlier work
Text: (§1) Peptides are obtained from the decomposition of proteins. Standard methods for preparing peptides in the food industry include enzymatic hydrolysis and microbial hydrolysis.

α-amylase = conditions: cited from earlier work
Text: as §1

[1] = target: T1, porcine pancreatic α-amylase (Sus scrofa, UniProt P00690); assay: α-Amylase inhibition assay in vitro (starch/DNS); format: biochemical; conditions: synthetic peptides; enzyme 0.5 U/mL, starch 10 mg/mL, PBS pH 6.9–7.2; 20 min premix, 10 min at 37 °C; DNS, 540 nm; mean ± standard error of the mean, three parallels
T1 construct: purchased Sigma-Aldrich (St. Louis, MO, USA)
T1 sequence (P00690 16-511): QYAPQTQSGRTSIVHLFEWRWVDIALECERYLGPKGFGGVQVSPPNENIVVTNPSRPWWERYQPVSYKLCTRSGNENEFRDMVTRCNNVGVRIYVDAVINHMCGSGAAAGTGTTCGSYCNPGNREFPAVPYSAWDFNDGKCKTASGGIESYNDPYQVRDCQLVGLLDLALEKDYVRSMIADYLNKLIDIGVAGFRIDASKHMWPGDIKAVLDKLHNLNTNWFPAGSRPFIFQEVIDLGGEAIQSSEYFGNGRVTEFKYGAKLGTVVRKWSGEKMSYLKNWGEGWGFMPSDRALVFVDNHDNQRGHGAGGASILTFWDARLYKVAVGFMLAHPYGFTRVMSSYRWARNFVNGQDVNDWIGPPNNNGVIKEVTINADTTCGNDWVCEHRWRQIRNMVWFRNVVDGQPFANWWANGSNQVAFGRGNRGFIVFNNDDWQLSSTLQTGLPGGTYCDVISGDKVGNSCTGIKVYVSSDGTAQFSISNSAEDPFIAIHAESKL
Text: p-Nitrophenyl-α-D-glucopyranoside (pNPG) and soy protein isolate were obtained from Mackiln (Shanghai, China). DL-dithiothreitol (DTT), iodoacetamide (IAA), formic acid (FA), acetonitrile (ACN), methanol, and porcine pancreatic amylase (PPA) (>10 units/mg) were acquired from Sigma-Aldrich (St. Louis, MO, USA). α-Glucosidase (from Saccharomyces cerevisiae, 26.5 units/mg) and trypsin (from porcine pancreas, 250 units/mg) were obtained from Yuanye Biotech (Shanghai, China). DNS solution was purchased from Rhawn (Shanghai, China). Oligopeptides were prepared with LifeTein (Beijing, China). High-performance liquid chromatography (HPLC)-grade acetonitrile, methanol, and formic acid were obtained from Merck (Darmstadt, Germany). The other chemicals were of analytical grade.
Methods refer to Admassu’s and make appropriate modifications. The starch solution (10 mg/mL), enzyme solution (0.5 U/mL), and soybean peptide solution at different concentrations (5, 10, 15, 20, 25 mg/mL) were prepared, the solvent was PBS (pH 6.9–7.2). […] The absorbance was measured at 540 nm, and the α-amylase inhibition ratio was calculated according to Formula (1):(1) α−Amylase Inhibition Ratio=1−A1−A2/A3−A4×100% where A1, A2, A3, and A4 are the absorbance values of the sample, sample blank, negative control, and blank, respectively.

[2] = peptide from Camellia seed cake, ref [15]
[3] = peptide from egg albumin, ref [19]

For “LLLLPSYSEF [identified from Camellia seed cake]”, the IC50 (α-glucosidase; [2]) is given as 1110 µM and the “inhibition type on α-glucosidase” value (α-glucosidase; [2]) is given as “mixed inhibition”.

In the case of “KLPGF [peptide segment identified in egg albumin]”, the IC50 (α-amylase; [3]) is listed as 120 µM and the IC50 (α-glucosidase; [3]) is listed as 59.5 µM.

Substance LDQTPRVF has an IC50 [1] of 3080 ± 150 µM.

In the case of “GGSK [oligopeptide isolated from Porphyra spp]”, the “inhibition mode on α-amylase” value (α-amylase; peptides from Porphyra spp., ref [11]) is listed as “could still bind with the substrate after binding with α-amylase”.

In the case of “GPPGPA [identified from the skin collagen of the Chinese giant salamander]”, the “inhibition type on α-glucosidase” value (α-glucosidase; peptide from skin collagen of Chinese giant salamander, ref [13]) is given as “competitive inhibitory effects”.

Substance SRNPIYSN has an IC50 [1] of 5580 ± 130 µM.
